Test [1] concerns the target T1, NOP (Homo sapiens, UniProt P41146).
T1 construct: expressed in transfected cells; host or cells: CHO cells (membranes)
The experiment in a line: Binding affinity to human NOP receptor transfected into CHO cells ([3H]N/OFQ).

In a further test the target is T2, KOP (Homo sapiens, UniProt P41145).
T2 construct: expressed in transfected cells; host or cells: CHO cells (membranes)
The experiment in a line: biochemical. To be noted: [3H]U69593, membranes of CHO cells with human receptor. Format: binding.

The target in test [2] is T3, MOP (Homo sapiens, UniProt P35372).
T3 construct: expressed in transfected cells; host or cells: CHO cells (membranes)
The experiment in a line: biochemical. Format: binding. To be noted: [3H]DAMGO, membranes of CHO cells with human receptor.

In test [3] the target is T3, MOP. The experiment in a line: [35S]GTPγS binding, MOP. Format: biochemical. To be noted: 1 h; read-out: % stim MOP. How it is done:
(§1) [^35S]GTPγS binding was conducted basically as described by Traynor and Nahorski (Traynor et al., 1995). Cells were scraped from tissue culture dishes into 20 mM Hepes, 1 mM EDTA, then centrifuged at 500×g for 10 min. Cells were resuspended in this buffer and homogenized using a Polytron Homogenizer. The homogenate was centrifuged at 27,000×g for 15 min, and the pellet re suspended in Buffer A, containing: 20 mM Hepes, 10 mM MgCl2, 100 mM NaCl, pH 7.4. The suspension was re centrifuged at 27,000×g and suspended once more in Buffer A. For the binding assay, membranes (8-15 μg protein) were incubated with [^35S]GTPγS (50 pM), GDP (10 μM), and the appropriate compound, in a total volume of 1.0 ml, for 60 min at 25′C. Samples were filtered over glass fiber filters and counted as described for the binding assays. Statistical analysis was conducted using the program Prism®.
On the technique in general: GTPγS is a poorly hydrolysed GTP analogue; its binding reports G protein activation.

Test [4] concerns the target T1, NOP. The experiment in a line: [35S]GTPγS binding, NOP. The format is biochemical. To be noted: 1 h; read-out: % stim NOP. How it is done:
as §1

By Ki is commonly meant the dissociation constant of the complex between target and ligand, obtained from inhibition or displacement. A high value points to lower affinity.

T2 sequence (P41145 whole entry): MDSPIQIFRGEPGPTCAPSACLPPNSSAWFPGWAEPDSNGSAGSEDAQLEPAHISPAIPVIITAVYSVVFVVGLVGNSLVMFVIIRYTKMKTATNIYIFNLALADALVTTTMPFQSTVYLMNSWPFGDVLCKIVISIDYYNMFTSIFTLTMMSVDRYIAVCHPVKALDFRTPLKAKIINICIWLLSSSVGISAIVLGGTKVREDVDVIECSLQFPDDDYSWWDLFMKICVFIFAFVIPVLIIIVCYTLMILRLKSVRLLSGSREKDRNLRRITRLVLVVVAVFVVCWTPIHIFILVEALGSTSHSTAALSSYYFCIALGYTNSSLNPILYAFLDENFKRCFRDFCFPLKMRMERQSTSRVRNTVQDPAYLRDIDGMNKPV
T1 sequence (P41146 whole entry): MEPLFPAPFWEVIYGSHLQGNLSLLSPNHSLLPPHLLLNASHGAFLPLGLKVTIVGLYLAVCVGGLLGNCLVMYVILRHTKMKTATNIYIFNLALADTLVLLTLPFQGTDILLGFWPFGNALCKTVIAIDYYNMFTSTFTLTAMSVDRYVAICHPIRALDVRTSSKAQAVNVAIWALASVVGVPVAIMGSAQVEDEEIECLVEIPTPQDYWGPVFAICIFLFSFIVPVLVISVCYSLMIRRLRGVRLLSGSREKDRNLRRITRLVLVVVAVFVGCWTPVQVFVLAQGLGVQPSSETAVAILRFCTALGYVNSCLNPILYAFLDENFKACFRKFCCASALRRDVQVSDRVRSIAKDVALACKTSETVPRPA
T3 sequence (P35372 whole entry): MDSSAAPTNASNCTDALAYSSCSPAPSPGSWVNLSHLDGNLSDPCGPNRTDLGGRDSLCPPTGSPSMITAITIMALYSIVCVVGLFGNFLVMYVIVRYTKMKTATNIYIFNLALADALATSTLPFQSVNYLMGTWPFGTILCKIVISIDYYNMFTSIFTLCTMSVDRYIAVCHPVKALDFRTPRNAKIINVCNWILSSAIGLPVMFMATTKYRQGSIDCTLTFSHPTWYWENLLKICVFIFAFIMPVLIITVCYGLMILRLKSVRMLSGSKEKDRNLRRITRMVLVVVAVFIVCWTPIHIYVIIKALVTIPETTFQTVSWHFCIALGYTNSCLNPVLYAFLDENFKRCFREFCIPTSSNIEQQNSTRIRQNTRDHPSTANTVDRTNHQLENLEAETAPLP

With `O=C(Cc1ccccc1)O[C@@]12CCC(=O)[C@@H]3Oc4c(O)ccc5c4[C@@]31CCN(CC1CC1)C2C5` [Compound 1, 14β-phenylacetyl-17-cyclopropylmethyl-7,8-dihydronoroxmorphinone], the Ki on NOP [1] came out at 127 ± 17 nM; on KOP, 1.14 ± 0.46 nM; at MOP [2] it was 0.86 ± 0.18 nM. Further, the Emax worked out at 32% at MOP [3] and 28% on NOP [4].
As for `Cc1ccc(CC(=O)O[C@@]23CCC(=O)[C@@H]4Oc5c(O)ccc6c5[C@@]42CCN(CC2CC2)C3C6)cc1` [Compound 2, 14β-(4′-methylphenylacetyl)-17-cyclopropylmethyl-7,8-dihydronoroxymorphinone], the figures for the Ki at NOP [1], on KOP and on MOP [2] were 36.3 ± 4.2 nM, 1.56 ± 0.28 nM and 1.87 ± 0.09 nM, respectively. Also, the Emax on MOP [3] was 35%; on NOP [4] it was 22%.
`Cc1ccccc1CC(=O)O[C@@]12CCC(=O)[C@@H]3Oc4c(O)ccc5c4[C@@]31CCN(CC1CC1)C2C5` [Compound 3, 14β-(2′-methylphenylacetyl)-17-cyclopropylmethyl-7,8-dihydronoroxymorphinone]: the inhibition constant (Ki) is 44.1 ± 3.1 nM at NOP [1], 1.69 ± 1.2 nM on KOP and 3.59 ± 0.86 nM on MOP [2]. For the same molecule, the Emax at MOP [3] came to 42%; on NOP [4], 21%.
As for `Cc1cccc(CC(=O)O[C@@]23CCC(=O)[C@@H]4Oc5c(O)ccc6c5[C@@]42CCN(CC2CC2)C3C6)c1` [Compound 4], the inhibitory constant (Ki) at NOP [1] was determined as 49.9 ± 3.5 nM; at KOP it was 2.8 ± 0.91 nM; on MOP [2], 1.91 ± 0.51 nM. Further, the Emax on MOP [3] amounted to 40%; on NOP [4] it was 59%.
As for `COc1cccc(CC(=O)O[C@@]23CCC(=O)[C@@H]4Oc5c(O)ccc6c5[C@@]42CCN(CC2CC2)C3C6)c1` [Compound 5, 14β-(3′-methoxyphenylacetyl)-17-cyclopropylmethyl-7,8-dihydronoroxymorphinone], the values for the inhibitory constant (Ki) at NOP [1], at KOP and at MOP [2] were 50.1 ± 2.7 nM, 1.44 ± 0.33 nM and 1.1 ± 0.08 nM, respectively. The Emax at MOP [3] turned out to be 11%; on NOP [4], 36%.
Take `O=C(Cc1ccc2c(c1)OCO2)O[C@@]12CCC(=O)[C@@H]3Oc4c(O)ccc5c4[C@@]31CCN(CC1CC1)C2C5` [Compound 6, 14β-(3′,4′-dioxymethylenephenylacetyl)-7-cyclopropylmethyl-7,8-dihydronoroxymorphinone]: the inhibition constant (Ki) on NOP [1] was found to be 94.3 ± 28 nM; on KOP, 1.2 ± 0.42 nM; at MOP [2] it was 0.99 ± 0.35 nM. Moreover, the Emax at MOP [3] was 12%; on NOP [4], 44%.
With `COc1ccccc1CC(=O)O[C@@]12CCC(=O)[C@@H]3Oc4c(O)ccc5c4[C@@]31CCN(CC1CC1)C2C5` [Compound 7, 14β-(2′-methoxyphenylacetyl)-17-cyclopropylmethyl-7,8-dihydronoroxmorphinone], the Ki turned out to be 62.3 ± 4.9 nM on NOP [1], 3.52 ± 0.9 nM at KOP and 3.77 ± 0.9 nM at MOP [2]. Further, the values for the Emax at MOP [3] and at NOP [4] were 37% and 41%, respectively.
For the molecule `O=C(Cc1ccccc1F)O[C@@]12CCC(=O)[C@@H]3Oc4c(O)ccc5c4[C@@]31CCN(CC1CC1)C2C5` [Compound 8, 14β-(2′-fluorophenylacetyl)-17-cyclopropylmethyl-7,8-dihydronoroxymorphinone], the inhibition constant Ki at NOP [1] worked out at 69.7 ± 2.4 nM; on KOP, 4.55 ± 0.7 nM; at MOP [2], 2.59 ± 1.1 nM. For the same molecule, the results for the Emax on MOP [3] and on NOP [4] were 28% and 15%, respectively.
On to `Cc1cccc(CCC(=O)O[C@@]23CCC(=O)[C@@H]4Oc5c(O)ccc6c5[C@@]42CCN(CC2CC2)C3C6)c1` [Compound 15, 14β-(3′-methylphenylpropanoyl)-17-cyclopropylmethyl-7,8-dihydronoroxymorphinone], for which the Ki on NOP [1] stood at 37.7 ± 2.6 nM; on KOP it was 1.56 ± 0.2 nM; at MOP [2], 0.91 ± 0.1 nM. Moreover, the Emax at MOP [3] was determined as 23%.
